Reference: patent publication US4713384A, “Selective method for blocking 5HT2 receptors” (Eli Lilly and Company, priority 1985, dated 1987)

Tests used:
[1] = target: T1, α1 receptors (Rattus norvegicus, UniProt P23944); experiment: alpha1 antagonism in rat aorta (norepinephrine); assay type: biochemical
T1 construct: their external jugular veins and thoracic aortas dissected free of connective tissue; from tissue; host or cells: thoracic aorta of male Wistar rats
T1 sequence (P23944 1-561): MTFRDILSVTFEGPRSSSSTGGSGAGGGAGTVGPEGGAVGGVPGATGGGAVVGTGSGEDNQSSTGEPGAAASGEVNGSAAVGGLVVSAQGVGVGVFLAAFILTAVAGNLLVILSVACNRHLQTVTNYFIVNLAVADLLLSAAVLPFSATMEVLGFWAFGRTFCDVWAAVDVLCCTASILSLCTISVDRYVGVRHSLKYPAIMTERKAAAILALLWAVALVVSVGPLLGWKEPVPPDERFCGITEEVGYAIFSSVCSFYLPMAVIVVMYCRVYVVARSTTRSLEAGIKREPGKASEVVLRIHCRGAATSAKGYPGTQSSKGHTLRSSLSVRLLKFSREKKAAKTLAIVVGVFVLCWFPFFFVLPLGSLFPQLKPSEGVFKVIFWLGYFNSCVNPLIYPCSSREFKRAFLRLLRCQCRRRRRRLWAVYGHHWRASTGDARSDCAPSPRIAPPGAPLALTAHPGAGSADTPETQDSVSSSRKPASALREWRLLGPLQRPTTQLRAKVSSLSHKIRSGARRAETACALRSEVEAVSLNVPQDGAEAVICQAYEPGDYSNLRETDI
Description: (§1) An initial optimum resting force of 1 and 4 g was applied to the jugular vein and aorta, respectively. […] Exp. Ther., 205, 400 (1978) and Cohen, Colbert and Wittenauer, Drug Dev. Res., 5 513 (1985) for descriptions of the procedures employed. Alpha receptor antagonist activity was evaluated in the aorta (α1) or guinea pig ileum (α2).
(§2) The -log KB values obtained for 4-hydroxycyclohexyl 1-isopropyl-9,10-dihydrolysergate, isomer mixture (racemate) and pure isomers (cis and trans referring to stereochemistry of the hydroxycyclohexyl group) plus standard error against 5HT2 receptors are given below in Table 1.
(§3) The in vitro rat aorta preparation described above was used for α1 -receptors and the guinea pig ileum for α2 -receptors. ED50 (median effective dose) for norepinephrine was determined in the presence of a 10-5 molar dose of the test compound and this ED50 compared to a control ED50.

[2] = target: T2, α2 receptors (Cavia porcellus, UniProt Q60474); experiment: alpha2 antagonism in guinea pig ileum; assay type: biochemical
T2 construct: Alpha receptor antagonist activity was evaluated in the aorta (α1) or guinea pig ileum (α2); from tissue; host or cells: guinea pig ileum
T2 sequence (Q60474 1-464): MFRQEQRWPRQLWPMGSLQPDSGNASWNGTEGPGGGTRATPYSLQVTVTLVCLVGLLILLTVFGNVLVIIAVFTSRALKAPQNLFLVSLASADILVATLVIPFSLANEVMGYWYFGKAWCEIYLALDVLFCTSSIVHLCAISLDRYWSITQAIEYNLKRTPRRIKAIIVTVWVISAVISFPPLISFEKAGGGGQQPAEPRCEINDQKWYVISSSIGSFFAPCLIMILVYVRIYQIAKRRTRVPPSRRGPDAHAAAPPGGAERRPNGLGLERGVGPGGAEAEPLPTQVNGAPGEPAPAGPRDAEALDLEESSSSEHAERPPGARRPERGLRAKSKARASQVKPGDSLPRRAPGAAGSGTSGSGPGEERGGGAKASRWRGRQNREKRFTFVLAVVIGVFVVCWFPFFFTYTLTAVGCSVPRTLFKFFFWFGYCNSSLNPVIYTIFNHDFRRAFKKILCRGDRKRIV
Description: as §1, §2, §3

[3] = tested on: 5HT2 receptors; experiment: pressor response to serotonin in pithed SHR after oral treatment; assay type: in vivo, spontaneously hypertensive rats (SHR); conditions: for Curve Shift Relative to trans: pithed SHR
Description: (§4) SHR were anesthesized with halothane, femoral arterial and venous catheters were implanted as before and the trachea was cannulated. Each rat was pithed by passing a steel rod through the right orbit and down the entire length of the spinal column. The steel rod remained in place for the duration of the experiment. Immediately after pithing, the rats were ventilated with room air. An equilibration period of 15 minutes was observed prior to control measurements and administration of drugs or vehicle p.o. Increasing doses of serotonin or the alpha2 agonist clonidine were injected i.v. one or six hours after oral treatment with the […]. The response was recorded and the blood pressure allowed to recover to control levels after serotonin. Cumulative dose-response curves to clonidine were determined. The test drug solution was prepared fresh daily. Tables 5 and 6 give the results of these determinations at a dose level of 0.1 mg/kg.
^a Conscious spontaneously hypertensive rats (SHR) were treated orall
1 hour before anesthesia, pithing and determination of pressordose
response curves to multiple doses of 5HT iv (n= 4-10/group).
^b Dose of 5HT required to increase mean arterial blood pressure by 5
6 hours before anesthesia, pithing and determination of pressordose
response curves to multiple doses of 5HT iv (n = 4-10/group).

[4] = target: T3, 5HT2 receptors (Rattus norvegicus, UniProt P14842); experiment: antagonism of serotonin contraction in rat external jugular vein (5HT2, apparent dissociation constant); assay type: biochemical, rat (male Wistar); design: their external jugular veins and thoracic aortas dissected free of connective tissue; from tissue; host or cells: external jugular vein of male Wistar rats; conditions: antagonist incubated one hour, 37° C., read-out: -log KB (Log Kb ± S.E.), 5HT2 receptors (converted)
Description: Compounds according to formula I have an extremely high affinity for 5HT2 receptors, with a much lower affinity for alpha receptors. Ratios of relative dissociation constants for interaction with alpha to 5HT2 receptors are of the order of 200,000-300,000 indicating dramatic selectivity for 5HT2 receptors. The apparent dissociation constants (KB) are a measure of affinity for 5HT2 and alpha receptors and are expressed as the negative logarithm and are determined according to the following protocol.
as §1, §2

[5] = target: T4, Histamine (Cavia porcellus, UniProt P31389); experiment: histamine contraction in guinea pig trachea; assay type: biochemical
T4 construct: histamine or carbamyl choline (muscarinic) contraction in guinea pig trachea; from tissue; host or cells: guinea pig trachea
Source text: (§5) The compounds of this invention also lack demonstrable effects against histamine or carbamyl choline (muscarinic) contraction in guinea pig trachea, using standard procedures.

[6] = target: T5, Muscarinic (Cavia porcellus, UniProt H0W1Z3); experiment: carbamyl choline (muscarinic) contraction in guinea pig trachea; assay type: biochemical
T5 construct: histamine or carbamyl choline (muscarinic) contraction in guinea pig trachea; from tissue; host or cells: guinea pig trachea
Source text: as §5

[7] = target: 5HT1 receptors; experiment: Rat Cortical Membrane Binding, 5HT1; conditions: rat cortical membranes; read-out: Rat Cortical Membrane Binding IC50, 5HT
[8] = target: T3, 5HT2 receptors; experiment: biochemical
Source text: The procedures employed are those set forth in Cohen, Colbert and Wittenauer (loc. cit.) for other tissues.

[9] = blood pressure and heart rate in spontaneously hypertensive rats; assay type: in vivo; conditions: SHR, oral, 10 mg/kg
[10] = tested on: alpha2 receptors; experiment: alpha2 antagonism (clonidine pressor response) in pithed SHR after oral treatment; assay type: in vivo, spontaneously hypertensive rats (SHR)
Description: as §4, with “Tables 5 and 6 give the results of these determinations at a dose level of 0.1 mg/kg.” left out

[11] = tested on: migraine; conditions: clinical trial, Lance I, Table 1; cited from earlier work
[12] = tested on: 5HT2 receptors; conditions: Cohen I; cited from earlier work
[13] = tested on: vascular alpha adrenergic receptors; conditions: Cohen I; cited from earlier work
[14] = tested on: vascular dopaminergic receptors; conditions: Cohen I; cited from earlier work
[15] = tested on: vascular histaminergic receptors; conditions: Cohen I; cited from earlier work
[16] = tested on: receptors other than 5HT2 receptors, particularly peripheral alpha2 receptors; conditions: cited from earlier work
[17] = tested on: migraine; conditions: Sulman; cited from earlier work
[18] = tested on: 5HT receptor; conditions: cited from earlier work; for 5HT receptor activity (agonist/antagonist) in words: literature
[19] = tested on: dopaminergic; conditions: literature; cited from earlier work
[20] = tested on: alpha-receptors; conditions: literature; cited from earlier work
[21] = Berde; cited from earlier work
[22] = tested on: cranial arteries; conditions: with noradrenaline, migraine attack, Aellig; cited from earlier work
[23] = literature; cited from earlier work
[24] = tested on: 5HT2; conditions: Awouters; cited from earlier work

T3 sequence (P14842 whole entry): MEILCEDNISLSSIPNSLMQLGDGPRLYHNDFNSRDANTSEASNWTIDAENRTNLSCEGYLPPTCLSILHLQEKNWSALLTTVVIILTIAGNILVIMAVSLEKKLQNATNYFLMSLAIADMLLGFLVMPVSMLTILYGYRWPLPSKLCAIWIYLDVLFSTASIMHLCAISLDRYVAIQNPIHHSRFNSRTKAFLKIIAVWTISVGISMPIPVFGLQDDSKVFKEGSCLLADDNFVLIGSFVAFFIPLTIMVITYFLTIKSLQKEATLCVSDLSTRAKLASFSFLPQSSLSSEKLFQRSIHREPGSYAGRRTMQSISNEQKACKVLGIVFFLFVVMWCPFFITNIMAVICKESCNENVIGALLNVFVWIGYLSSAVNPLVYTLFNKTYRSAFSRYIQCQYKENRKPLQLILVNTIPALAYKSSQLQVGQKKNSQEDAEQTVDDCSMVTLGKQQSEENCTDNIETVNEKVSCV
T5 sequence (H0W1Z3 1-590): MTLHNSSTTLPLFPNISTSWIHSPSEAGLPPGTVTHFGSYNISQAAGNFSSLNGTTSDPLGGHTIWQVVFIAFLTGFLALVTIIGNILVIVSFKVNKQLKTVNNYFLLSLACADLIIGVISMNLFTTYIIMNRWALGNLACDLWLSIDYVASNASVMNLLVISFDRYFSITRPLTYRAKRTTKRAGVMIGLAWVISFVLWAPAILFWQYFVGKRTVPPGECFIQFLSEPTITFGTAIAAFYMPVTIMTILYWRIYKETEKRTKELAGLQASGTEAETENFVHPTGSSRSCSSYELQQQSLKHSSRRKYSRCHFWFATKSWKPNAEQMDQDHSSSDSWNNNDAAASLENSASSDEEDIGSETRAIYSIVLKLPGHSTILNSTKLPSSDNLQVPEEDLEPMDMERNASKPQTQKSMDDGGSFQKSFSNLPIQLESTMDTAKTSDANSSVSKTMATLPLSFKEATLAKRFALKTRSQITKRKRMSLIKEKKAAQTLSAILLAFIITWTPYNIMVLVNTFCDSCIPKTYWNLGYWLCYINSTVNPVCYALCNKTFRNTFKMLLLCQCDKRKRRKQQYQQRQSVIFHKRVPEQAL
T4 sequence (P31389 whole entry): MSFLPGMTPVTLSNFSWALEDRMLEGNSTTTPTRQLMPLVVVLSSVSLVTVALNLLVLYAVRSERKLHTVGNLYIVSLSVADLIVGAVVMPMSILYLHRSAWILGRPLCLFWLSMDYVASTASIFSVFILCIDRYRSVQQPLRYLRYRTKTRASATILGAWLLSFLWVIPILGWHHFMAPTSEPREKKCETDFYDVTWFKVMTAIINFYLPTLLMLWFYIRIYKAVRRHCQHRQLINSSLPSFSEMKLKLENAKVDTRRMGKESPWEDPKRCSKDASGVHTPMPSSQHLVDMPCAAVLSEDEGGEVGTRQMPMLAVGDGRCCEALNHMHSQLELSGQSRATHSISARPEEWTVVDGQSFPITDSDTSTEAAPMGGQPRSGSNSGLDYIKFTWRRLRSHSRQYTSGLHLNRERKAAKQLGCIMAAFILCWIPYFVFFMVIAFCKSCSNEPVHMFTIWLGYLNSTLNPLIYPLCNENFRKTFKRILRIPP

Which results are given for `CC(C)n1cc2c3c(cccc31)[C@H]1C[C@@H](C(=O)O[C@H]3CC[C@@H](O)CC3)CN(C)[C@@H]1C2` (mixture of isomers) [cis, cis-(±)-4-hydroxycyclohexyl 1-isopropyl-9,10-dihydrolysergate]?
Kb [1]: 4470 nM; Kb [2]: 155 nM; curve shift ([3]; 0.3 mg/kg po): 6.7; dose of 5HT required to increase mean arterial BP by 50 mmHg ([3]; 0.3 mg/kg po): 1800; Curve Shift Relative to trans ([3]; one hour after oral 0.1 mg/kg): 11.6; Curve Shift Relative to trans ([3]; six hours after oral 0.1 mg/kg): 24.3; Kb [4]: 0.112 nM

Which Kb [1] does the source give for `CC(C)n1cc2c3c(cccc31)[C@H]1C[C@@H](C(=O)OC3CCC(O)CC3)CN(C)[C@@H]1C2` (mixture of isomers) [mixture, 4-hydroxycyclohexyl 1-isopropyl-9,10-dihydrolysergate] here?
Its Kb is 14500 nM.

What about the Kb [2] of the same molecule?
Its Kb is 117 nM.

What about the Kb [5] of the same molecule?
The Kb was > 10000 nM.

What about the Kb [6] of the same molecule?
The Kb was > 10000 nM.

What about the IC50 [7] of the same molecule?
The IC50 was 530 nM.

And the IC50 [8]?
Its IC50 is 3 nM.

What about the “effect on blood pressure or heart rate” value [9] of the same molecule?
The value was “no effect on blood pressure or heart rate”.

What about the “Curve Shift Relative to trans” value ([3]; one hour after oral 0.1 mg/kg) of the same molecule?
Its value is 3.6.

And the “Curve Shift Relative to trans” value ([3]; six hours after oral 0.1 mg/kg)?
Its value is 5.5.

And the “alpha2 antagonist activity in pithed rats” value ([10]; 100 mg/kg dose level po)?
Its value is “slight”.

And the “specificity (5HT2 vs alpha2) in vivo compared with in vitro” value ([10]; pithed rats, po)?
The value was “greater specificity”.

And the Kb [4]?
The Kb was 0.0661 nM.

With `CN1CCC(=C2c3ccccc3CCc3sccc32)CC1` [BC105] as the molecule, how does the “Improvement rate in migraine” value [11] read?
The value was 50%.

With `CC(O)C(C)OC(=O)[C@@H]1C[C@@H]2c3cccc4c3c(cn4C(C)C)C[C@H]2N(C)C1` (stereo partly drawn) [LY53857, 1-isopropyl-6-methyl-8β-(1-methyl-2-hydroxy)propoxycarbonyl-5R-ergoline] as the molecule, how does the “antagonism of vascular contraction to serotonin” value [12] read?
The value was “potent antagonist”.

And the “affinity, vascular alpha adrenergic receptors” value [13]?
The value was “minimal affinity”.

What about the “affinity, vascular dopaminergic receptors” value [14] of the same molecule?
The value was “minimal affinity”.

And the “affinity, vascular histaminergic receptors” value [15]?
Its value is “minimal affinity”.

And the “effect on receptors other than 5HT2” value [16]?
Its value is “lack of effect”.

Which “Improvement rate in migraine” value [11] does the source give for `CN1CCC(=C2c3ccccc3C=Cc3ccccc32)CC1` [cyproheptadine] here?
Its value is 43%.

Which pharmacological effects [17] does the source give for `CN1CCC(=C2c3ccccc3C(O)c3ccccc32)CC1` (stereo not shown) [danitracene] here?
The pharmacological effects was “antiserotonin, antihistamine and antidepressive affects”.

What does the source list for `C[C@@H](CO)NC(=O)[C@@H]1C=C2c3cccc4[nH]cc(c34)C[C@H]2N(C)C1` [ergonovine]?
5HT receptor activity (agonist/antagonist) in words [18]: 5HT agonist and selective and fairly potent 5HT antagonist in smooth muscle and highly active 5HT antagonist in the uterus; dopaminergic activity in words [19]: weak dopaminergic antagonist

What does the source list for `CN1C[C@H](C(=O)N[C@]2(C)O[C@@]3(O)[C@@H]4CCCN4C(=O)[C@H](Cc4ccccc4)N3C2=O)C=C2c3cccc4[nH]cc(c34)C[C@H]21` [ergotamine]?
5HT receptor activity (agonist/antagonist) in words [18]: 5HT agonists at low concentrations but antagonistic at higher concentrations; alpha receptor activity in words [20]: both a partial alpha-agonist and an alpha-antagonist; pressor and emetic activity [21]: most active compound only in pressor and emetic activity; constriction of cranial arteries [22]: act together to constrict cranial arteries

With `CCN(CC)C(=O)N[C@H]1C=C2c3cccc4[nH]cc(c34)C[C@H]2N(C)C1` [lysenyl, N-D-6-methylisoergolenyldiethylcarbamide] as the molecule, how does the “Improvement rate in migraine” value [11] read?
Its value is 34%.

For `CN1CCC(CN2c3ccccc3Sc3ccccc32)C1` (stereo not shown) [methdilazine], which “Improvement rate in migraine” value [11] is on record?
The value was 45%.

Which “5HT receptor blockade rating” value ([18]; Berde, most active compound = 1,000) does the source give for `CC[C@@H](CO)NC(=O)[C@@H]1C=C2c3cccc4c3c(cn4C)C[C@H]2N(C)C1` [methysergide] here?
Its value is 1,000.

And the “5HT receptor activity (agonist/antagonist) in words” value [18]?
The value was 5HT agonists at low concentrations but antagonistic at higher concentrations and partial 5HT agonist in certain blood vessels and very potent 5HT antagonist in the CNS.

What about the “alpha receptor activity in words” value [20] of the same molecule?
The value was “little or no action on alpha-receptors”.

And the oxytocic action [23]?
Its oxytocic action is “no oxytocic action”.

And the “Improvement rate in migraine” value [11]?
Its value is 64%.

What about the “5HT2 agonist activity and side effects” value [24] of the same molecule?
Its value is “responsible for some of the side effects”.

With `CC(C)n1cc2c3c(cccc31)[C@H]1C[C@@H](C(=O)O[C@H]3CC[C@H](O)CC3)CN(C)[C@@H]1C2` [trans, trans-4-hydroxycyclohexyl 1-isopropyl-9,10-dihydrolysergate] as the molecule, how does the Kb [1] read?
Its Kb is 1950 nM.

What about the Kb [2] of the same molecule?
The Kb was 66.1 nM.

What about the Kb [5] of the same molecule?
The Kb was > 10000 nM.

What about the Kb [6] of the same molecule?
Its Kb is > 10000 nM.

What about the IC50 [7] of the same molecule?
The IC50 was 390 nM.

And the IC50 [8]?
Its IC50 is 0.7 nM.

And the “potency of trans isomer relative to cis isomer” value ([3]; by extrapolation, po)?
Its value is 3 X.

And the Kb [4]?
The Kb was 0.0955 nM.
